{"source": "PubChem BioAssay (NCI)", "test_in_all_cases": "NCI-60 cell line screen, 48 h", "key": {"[1]": {"test_system": "786-0 renal"}, "[2]": {"test_system": "A498 renal"}, "[3]": {"test_system": "A549 NSCLC"}, "[4]": {"test_system": "ACHN renal"}, "[5]": {"test_system": "BT-549 breast"}, "[6]": {"test_system": "CAKI-1 renal"}, "[7]": {"test_system": "COLO 205 colon"}, "[8]": {"test_system": "DU-145 prostate"}, "[9]": {"test_system": "EKVX NSCLC"}, "[10]": {"test_system": "HCC-2998 colon"}, "[11]": {"test_system": "HCT-116 colon"}, "[12]": {"test_system": "HCT-15 colon"}, "[13]": {"test_system": "HL-60(TB) leukemia"}, "[14]": {"test_system": "HOP-62 NSCLC"}, "[15]": {"test_system": "HS 578T breast"}, "[16]": {"test_system": "IGROV1 ovarian"}, "[17]": {"test_system": "K-562 leukemia"}, "[18]": {"test_system": "LOX IMVI melanoma"}, "[19]": {"test_system": "M14 melanoma"}, "[20]": {"test_system": "MALME-3M melanoma"}, "[21]": {"test_system": "MCF7 breast"}, "[22]": {"test_system": "MDA-MB-231 breast"}, "[23]": {"test_system": "MDA-MB-435"}, "[24]": {"test_system": "MDA-MB-468 breast"}, "[25]": {"test_system": "MOLT-4 leukemia"}, "[26]": {"test_system": "NCI-H23 lung"}, "[27]": {"test_system": "NCI-H522 lung"}, "[28]": {"test_system": "NCI/ADR-RES ovarian"}, "[29]": {"test_system": "OVCAR-3 ovarian"}, "[30]": {"test_system": "OVCAR-4 ovarian"}, "[31]": {"test_system": "OVCAR-5 ovarian"}, "[32]": {"test_system": "OVCAR-8 ovarian"}, "[33]": {"test_system": "RXF 393 renal"}, "[34]": {"test_system": "SF-295 CNS"}, "[35]": {"test_system": "SF-539 CNS"}, "[36]": {"test_system": "SK-MEL-2 melanoma"}, "[37]": {"test_system": "SK-MEL-28 melanoma"}, "[38]": {"test_system": "SK-MEL-5 melanoma"}, "[39]": {"test_system": "SK-OV-3 ovarian"}, "[40]": {"test_system": "SN12C renal"}, "[41]": {"test_system": "SNB-19 CNS"}, "[42]": {"test_system": "SNB-75 CNS"}, "[43]": {"test_system": "SR leukemia"}, "[44]": {"test_system": "SW-620 colon"}, "[45]": {"test_system": "T-47D breast"}, "[46]": {"test_system": "TK-10 renal"}, "[47]": {"test_system": "U251 CNS"}, "[48]": {"test_system": "UACC-257 melanoma"}, "[49]": {"test_system": "UACC-62 melanoma"}, "[50]": {"test_system": "UO-31 renal"}}, "note": "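Test compounds were applied to cells in 96-well plates for 48 hours at 5 doses. GI50 is the concentration that inhibits growth by half. TGI denotes the concentration required for complete inhibition of growth.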", "data": [{"smiles": "CC1=C(C=O)C2=C(C)C3(CC3)[C@@](C)(O)C(=O)C2=C1", "values": [{"measurement": "GI50", "setting": "[1]", "result": 209, "unit": "nM"}, {"measurement": "TGI", "setting": "[1]", "result": 491, "unit": "nM"}, {"measurement": "GI50", "setting": "[2]", "result": 996, "unit": "nM"}, {"measurement": "TGI", "setting": "[2]", "result": 2460, "unit": "nM"}, {"measurement": "GI50", "setting": "[3]", "result": 276, "unit": "nM"}, {"measurement": "TGI", "setting": "[3]", "result": 1010, "unit": "nM"}, {"measurement": "GI50", "setting": "[4]", "result": 229, "unit": "nM"}, {"measurement": "TGI", "setting": "[4]", "result": 543, "unit": "nM"}, {"measurement": "GI50", "setting": "[5]", "result": 190, "unit": "nM"}, {"measurement": "TGI", "setting": "[5]", "result": 440, "unit": "nM"}, {"measurement": "GI50", "setting": "[6]", "result": 306, "unit": "nM"}, {"measurement": "TGI", "setting": "[6]", "result": 1090, "unit": "nM"}, {"measurement": "GI50", "setting": "[7]", "result": 226, "unit": "nM"}, {"measurement": "TGI", "setting": "[7]", "result": 459, "unit": "nM"}, {"measurement": "GI50", "setting": "[8]", "result": 365, "unit": "nM"}, {"measurement": "TGI", "setting": "[8]", "result": 1310, "unit": "nM"}, {"measurement": "GI50", "setting": "[9]", "result": 244, "unit": "nM"}, {"measurement": "TGI", "setting": "[9]", "result": 737, "unit": "nM"}, {"measurement": "GI50", "setting": "[10]", "result": 179, "unit": "nM"}, {"measurement": "TGI", "setting": "[10]", "result": 338, "unit": "nM"}, {"measurement": "GI50", "setting": "[11]", "result": 161, "unit": "nM"}, {"measurement": "TGI", "setting": "[11]", "result": 317, "unit": "nM"}, {"measurement": "GI50", "setting": "[12]", "result": 180, "unit": "nM"}, {"measurement": "TGI", "setting": "[12]", "result": 370, "unit": "nM"}, {"measurement": "GI50", "setting": "[13]", "result": 227, "unit": "nM"}, {"measurement": "TGI", "setting": "[13]", "result": 703, "unit": "nM"}, {"measurement": "GI50", "setting": "[14]", "result": 216, "unit": "nM"}, {"measurement": "TGI", "setting": "[14]", "result": 518, "unit": "nM"}, {"measurement": "GI50", "setting": "[15]", "result": 259, "unit": "nM"}, {"measurement": "TGI", "setting": "[15]", "result": 799, "unit": "nM"}, {"measurement": "GI50", "setting": "[16]", "result": 236, "unit": "nM"}, {"measurement": "TGI", "setting": "[16]", "result": 538, "unit": "nM"}, {"measurement": "GI50", "setting": "[17]", "result": 243, "unit": "nM"}, {"measurement": "TGI", "setting": "[17]", "result": 765, "unit": "nM"}, {"measurement": "GI50", "setting": "[18]", "result": 153, "unit": "nM"}, {"measurement": "TGI", "setting": "[18]", "result": 295, "unit": "nM"}, {"measurement": "GI50", "setting": "[19]", "result": 212, "unit": "nM"}, {"measurement": "TGI", "setting": "[19]", "result": 463, "unit": "nM"}, {"measurement": "GI50", "setting": "[20]", "result": 180, "unit": "nM"}, {"measurement": "TGI", "setting": "[20]", "result": 353, "unit": "nM"}, {"measurement": "GI50", "setting": "[21]", "result": 181, "unit": "nM"}, {"measurement": "TGI", "setting": "[21]", "result": 576, "unit": "nM"}, {"measurement": "GI50", "setting": "[22]", "result": 194, "unit": "nM"}, {"measurement": "TGI", "setting": "[22]", "result": 367, "unit": "nM"}, {"measurement": "GI50", "setting": "[23]", "result": 213, "unit": "nM"}, {"measurement": "TGI", "setting": "[23]", "result": 495, "unit": "nM"}, {"measurement": "GI50", "setting": "[24]", "result": 159, "unit": "nM"}, {"measurement": "TGI", "setting": "[24]", "result": 344, "unit": "nM"}, {"measurement": "GI50", "setting": "[25]", "result": 218, "unit": "nM"}, {"measurement": "TGI", "setting": "[25]", "result": 977, "unit": "nM"}, {"measurement": "GI50", "setting": "[26]", "result": 180, "unit": "nM"}, {"measurement": "TGI", "setting": "[26]", "result": 361, "unit": "nM"}, {"measurement": "GI50", "setting": "[27]", "result": 171, "unit": "nM"}, {"measurement": "TGI", "setting": "[27]", "result": 333, "unit": "nM"}, {"measurement": "GI50", "setting": "[28]", "result": 321, "unit": "nM"}, {"measurement": "TGI", "setting": "[28]", "result": 1310, "unit": "nM"}, {"measurement": "GI50", "setting": "[29]", "result": 250, "unit": "nM"}, {"measurement": "TGI", "setting": "[29]", "result": 618, "unit": "nM"}, {"measurement": "GI50", "setting": "[30]", "result": 407, "unit": "nM"}, {"measurement": "TGI", "setting": "[30]", "result": 3990, "unit": "nM"}, {"measurement": "GI50", "setting": "[31]", "result": 223, "unit": "nM"}, {"measurement": "TGI", "setting": "[31]", "result": 533, "unit": "nM"}, {"measurement": "GI50", "setting": "[32]", "result": 214, "unit": "nM"}, {"measurement": "TGI", "setting": "[32]", "result": 562, "unit": "nM"}, {"measurement": "GI50", "setting": "[33]", "result": 147, "unit": "nM"}, {"measurement": "TGI", "setting": "[33]", "result": 293, "unit": "nM"}, {"measurement": "GI50", "setting": "[34]", "result": 194, "unit": "nM"}, {"measurement": "TGI", "setting": "[34]", "result": 387, "unit": "nM"}, {"measurement": "GI50", "setting": "[35]", "result": 178, "unit": "nM"}, {"measurement": "TGI", "setting": "[35]", "result": 359, "unit": "nM"}, {"measurement": "GI50", "setting": "[36]", "result": 348, "unit": "nM"}, {"measurement": "TGI", "setting": "[36]", "result": 1180, "unit": "nM"}, {"measurement": "GI50", "setting": "[37]", "result": 284, "unit": "nM"}, {"measurement": "TGI", "setting": "[37]", "result": 781, "unit": "nM"}, {"measurement": "GI50", "setting": "[38]", "result": 187, "unit": "nM"}, {"measurement": "TGI", "setting": "[38]", "result": 381, "unit": "nM"}, {"measurement": "GI50", "setting": "[39]", "result": 678, "unit": "nM"}, {"measurement": "TGI", "setting": "[39]", "result": 1800, "unit": "nM"}, {"measurement": "GI50", "setting": "[40]", "result": 221, "unit": "nM"}, {"measurement": "TGI", "setting": "[40]", "result": 523, "unit": "nM"}, {"measurement": "GI50", "setting": "[41]", "result": 342, "unit": "nM"}, {"measurement": "TGI", "setting": "[41]", "result": 1340, "unit": "nM"}, {"measurement": "GI50", "setting": "[42]", "result": 176, "unit": "nM"}, {"measurement": "TGI", "setting": "[42]", "result": 547, "unit": "nM"}, {"measurement": "GI50", "setting": "[43]", "result": 212, "unit": "nM"}, {"measurement": "TGI", "setting": "[43]", "result": 695, "unit": "nM"}, {"measurement": "GI50", "setting": "[44]", "result": 255, "unit": "nM"}, {"measurement": "TGI", "setting": "[44]", "result": 694, "unit": "nM"}, {"measurement": "GI50", "setting": "[45]", "result": 199, "unit": "nM"}, {"measurement": "TGI", "setting": "[45]", "result": 566, "unit": "nM"}, {"measurement": "GI50", "setting": "[46]", "result": 519, "unit": "nM"}, {"measurement": "TGI", "setting": "[46]", "result": 2320, "unit": "nM"}, {"measurement": "GI50", "setting": "[47]", "result": 170, "unit": "nM"}, {"measurement": "TGI", "setting": "[47]", "result": 341, "unit": "nM"}, {"measurement": "GI50", "setting": "[48]", "result": 188, "unit": "nM"}, {"measurement": "TGI", "setting": "[48]", "result": 418, "unit": "nM"}, {"measurement": "GI50", "setting": "[49]", "result": 179, "unit": "nM"}, {"measurement": "TGI", "setting": "[49]", "result": 372, "unit": "nM"}, {"measurement": "GI50", "setting": "[50]", "result": 170, "unit": "nM"}, {"measurement": "TGI", "setting": "[50]", "result": 359, "unit": "nM"}]}]}
